# Laboratory results: ChEMBL document CHEMBL5614416, “Discovery of novel thiophene[3,2-d]pyrimidine-based tubulin inhibitors with enhanced antitumor efficacy for combined use with anti-pd-l1 immunotherapy in melanoma” (Eur J Med Chem, 2024)
# Activity calls are given as the source filed them. The rule behind the calls is not given here.
# Tests used:
# [1] = test system: B16-F10; experiment: Induction of apoptosis in mouse B16-F10 cells assessed as early apoptotic cells at 2 nM incubated for 12 hrs by Annexin V-FITC/PI staining based flow cytometry (reference value: 3.81 %); type: functional
# [2] = Toxicity in C57 mouse xenografted with mouse B16-F10 cells assessed as MCHC level at 7 mg/kg, ip qd for 12 days by biochemical analysis (reference value: 324.000 to 683.000 g/L); type: organism-based; details: in vivo, 288 h, time 12 day
# [3] = test system: B16-F10; experiment: Induction of apoptosis in mouse B16-F10 cells assessed as increase in Bax level upto 30 nM incubated for 24 hrs by Western blot analysis; type: functional, cell-based
# [4] = test system: B16-F10; experiment: Induction of apoptosis in mouse B16-F10 cells assessed as necrotic cells at 2 nM incubated for 12 hrs by Annexin V-FITC/PI staining based flow cytometry (reference value: 0.25 %); type: functional
# [5] = test system: B16-F10; experiment: Antitumor activity against mouse B16-F10 cells xenografted in C57 mouse assessed as suppression of tumor growth at 7 mg/kg, ip qd for 12 days; type: functional, organism-based; details: time 12.0 day
# [6] = test system: B16-F10; experiment: Induction of apoptosis in mouse B16-F10 cells assessed as necrotic cells at 0.5 nM incubated for 12 hrs by Annexin V-FITC/PI staining based flow cytometry (reference value: 0.25 %); type: functional
compound,measurement,setting,value
Cc1nc(N(C)c2ccc3c(ccn3C)c2)c2sccc2n1,Activity,[1],14.2%
same,Activity,[2],322 g/L
same,Activity,[3],Active
same,Activity,[4],1.76%
same,Activity,[5],Active
same,Activity,[6],1.44%
